Patent US8552048B2, “Phosphoramidate alkylator prodrugs for the treatment of cancer” (Threshold Pharmaceuticals, Inc., priority 2006, dated 2013)
Values joined by “and” are separate entries in the source; they are usually repeats but may differ in a detail not shown here. Equal values may be shown once. Read-outs that look alike come from different tables or passages of the source.

Columns and labels:
[1] = Pharmacokinetics in Sprague-Dawley rats (single dose i.v. and p.o.); assay type: in vivo, male Sprague-Dawley rats
Protocol: Pharmacokinetic studies were performed in male CD-1 (50 mg/kg i.p. or orally (p.o.)) or female nude mice (50 mg/kg i.v. or i.p.), male Sprague-Dawley rats (1, 5, 20 and 50 mg/kg i.v. and 100 mg/kg, p.o.), beagle dogs (20 mg/kg, i.v.) and cynomologus monkeys (20 mg/kg i.v.). Plasma TH302 concentrations were analyzed using a LC/MS method and the pharmacokinetic parameters computed using a noncompartmental method. Interspecies scaling was performed according to standard methods.
TH302 was dissolved in 50% PEG400/Saline to obtain a final concentration of 25 mg/mL, and then was further diluted to yield 25, 10, 2.5 and 0.5 mg/mL formulations of TH302 (pH The formulations were prepared just before dosing. The concentration of TH302 in dosing solution was confirmed by HPLC-UV. Male Sprague Dawley rats (body weight: 200 g to 230 g) were used in this study. Before the pharmacokinetic studies, animals were randomly assigned to four treatment groups cannulated in the carotid artery for serial blood sampling. All rats were administered a single intravenous bolus dose over one minute via the tail vein. The concentrations of TH302 in plasma were determined using a high performance liquid chromatography/mass spectrometry (HPLC/MS/MS) method. […]

[2] = Biodistribution by whole body autoradiography; assay type: in vivo, male Sprague Dawley rats; details: rats, [^14C] TH302 50 mg/kg single i.v. bolus
Protocol: TH302 to rats. Five male Sprague Dawley rats were assigned to one dose group. Non-radiolabeled TH302 (0.06 g) was weighed into an appropriate formulation bottle, a solution of 153 μL of [^14C] TH302 was measured and transferred to the formulation bottle, followed by the addition of 6.85 mL of 50 PEG400 in saline. The resulting formulation was cold-sterilized by filtration through a 0.22 μm mesh size commercial filter. The dosing formulation was kept at ambient temperature and in the dark pending dose administration. Animals were administered radiolabelled TH302 by intravenous injection of the formulation at a dose of 50 mg/kg wherein a radioactivity of about 100 μCi was administered. Following administration of TH302, the animals were sacrificed at selected time-points and carcasses were flash-frozen and processed for sectioning. A series of sagittal and para-sagittal sections were obtained from each carcass and were exposed to highly sensitive film until adequate imprinting of radioactivity was obtained. The pictures obtained were analyzed semi-quantitatively using computerized densitometry.

[3] = Single-dose toxicity in dogs; assay type: in vivo
Protocol: A single-dose of TH302 was administered to rats and dogs over 30 min in order to achieve a rapid increase to relatively high drug levels. Rats were administered 50, 100, and 200 mg/kg, and dogs at 8, 16 and 32 mg/kg of TH302. […] These changes at the lowest toxicity level were fully reversible within 2 weeks.

[4] = rats, 1 mg/kg i.v. bolus, individual animals, 1 mg/kg
[5] = rats, 5 mg/kg i.v. bolus, individual animals, 5 mg/kg
[6] = rats, 20 mg/kg i.v. bolus, individual animals, 20 mg/kg
[7] = rats, 50 mg/kg i.v. bolus, individual animals, 50 mg/kg

## Cn1c(COP(=O)(NCCBr)NCCBr)cnc1[N+](=O)[O-] [TH302]
[1]; male, Sprague-Dawley, rat, plasma, iv, 50 mg/kg, rats, 50 mg/kg i.v. bolus, individual animals, read-out: Cmax
  Cmax: 37200 ng/mL
[1]; male, Sprague-Dawley, rat, plasma, iv, 50 mg/kg, rats, 50 mg/kg i.v. bolus, individual animals, read-out: MRT
  MRT: 17.4 min
[1]; male, Sprague-Dawley, rat, plasma, iv, 50 mg/kg, rats, 50 mg/kg i.v. bolus, individual animals, read-out: Vss
  Vd: 1.63 L/kg
[1]; male, Sprague-Dawley, rat, plasma, iv, 50 mg/kg, rats, i.v. bolus, up to 8 mg/kg human equivalent daily dose, read-out: exposure of TH302, AUC
  AUC: ~8500 ng·h/mL
[1]; male, Sprague-Dawley, rat, plasma, iv, rats, i.v. dose 1-50 mg/kg, range of means, read-out: Mean Cl
  clearance: 78.2 to 102 mL/min/kg
[1]; male, Sprague-Dawley, rat, plasma, iv, rats, i.v. dose 1-50 mg/kg, range of means, read-out: mean Vss
  Vd: 1.67 to 5.09 L/kg
[1]; male, Sprague-Dawley, rat, plasma, iv, rats, i.v. dose 1-50 mg/kg, range of means, read-out: mean terminal plasma t1/2
  half-life: 79.2 to 262 min
[1]; male, Sprague-Dawley, rat, plasma, iv, rats, 1 mg/kg i.v. bolus, individual animals
  Tmax: 1.8 min
[1]; male, Sprague-Dawley, rat, plasma, iv, rats, 5 mg/kg i.v. bolus, individual animals
  Tmax: 1.8 min
[1]; male, Sprague-Dawley, rat, plasma, iv, rats, 20 mg/kg i.v. bolus, individual animals
  Tmax: 1.8 min
[1]; male, Sprague-Dawley, rat, plasma, iv, rats, 50 mg/kg i.v. bolus, individual animals
  Tmax: 1.8 min
[1]; rats, 1 mg/kg i.v. bolus, MEAN
  Vβ: 13.55 L/kg
[1]; [4]
  AUC(0-t): 273.70 ng·h/mL and 202.22 ng·h/mL
  AUC(0-∞): 282.01 ng·h/mL and 203.34 ng·h/mL
  CL: 59.2 mL/min/kg
  Cmax: 990.12 ng/mL and 732.20 ng/mL
  MRT: 61.8 min
  T1/2: 130 min and 131 min
  Vss: 2.82 L/kg
  Vβ: 14.19 L/kg and 11.03 L/kg and 15.45 L/kg
[1]; rats, 5 mg/kg i.v. bolus, MEAN
  Vβ: 30.66 L/kg
[1]; [5]
  AUC(0-t): 868.22 ng·h/mL
  AUC(0-∞): 919.39 ng·h/mL
  CL: 90.7 mL/min/kg
  Cmax: 3803.81 ng/mL
  MRT: 27 min and 81.6 min
  T1/2: 73.2 min and 377 min
  Vβ: 11.99 L/kg and 49.33 L/kg
[1]; rats, 20 mg/kg i.v. bolus, MEAN
  Vβ: 41.04 L/kg
[1]; [6]
  AUC(0-t): 3380.61 ng·h/mL and 3597.80 ng·h/mL
  AUC(0-∞): 3387.13 ng·h/mL and 3618.51 ng·h/mL
  CL: 92.2 mL/min/kg
  Cmax: 12009.10 ng/mL and 15053.50 ng/mL
  MRT: 24.6 min and 22.2 min
  T1/2: 564 min and 64.8 min and 159 min
  Vss: 1.68 L/kg
  Vβ: 92.86 L/kg and 9.16 L/kg and 21.10 L/kg
[1]; rats, 50 mg/kg i.v. bolus, MEAN
  Vβ: 11.41 L/kg
[1]; [7]
  AUC(0-t): 8482.72 ng·h/mL and 8083.24 ng·h/mL
  AUC(0-∞): 8488.15 ng·h/mL and 8102.61 ng·h/mL
  CL: 98.2 mL/min/kg and 103 mL/min/kg
  Cmax: 37277.10 ng/mL and 32033.40 ng/mL
  MRT: 18 min and 15.6 min
  T1/2: 46.2 min and 56.4 min and 134 min
  Vss: 1.68 L/kg and 1.70 L/kg
  Vβ: 6.28 L/kg and 7.99 L/kg and 19.94 L/kg
[1]; rats, 100 mg/kg p.o., first sampled time point
  time of mean peak plasma concentration: 15 min
[1]; rats, 1, 5, 20 and 50 mg/kg i.v.
  linearity of pharmacokinetics: linear pharmacokinetics
[2]
  distribution of radioactivity: associated with the gastro-intestinal (GI) tract, its contents, and the kidney
[3]; 32 mg/kg single dose
  affected organs at the highest dose level: bone marrow, kidney, thymus and intestine
[3]; single dose over 30 min, highest dose 32 mg/kg
  lethality: lethality was observed
[3]; single dose study
  primary findings at the lowest toxicity level: reduction in white blood cell counts
  time to full reversal of changes at the lowest toxicity level: ≤ 2 weeks
